Assay results reported in patent publication US9273018B2, “Piperazine derivatives” (St. Mary's University, priority 2011, dated 2016).

How the values were obtained:
Format in all cases: cell-based
A549 lung cancer cells = experiment: Cytotoxicity of A549 lung cancer cells (relative cell density); conditions: relative cell density as percent of control, FIG. 2
Protocol: A549 lung cancer cells were cultured according to established protocols (Lieber M. et al., Int. J. Cancer 17: 62-70, 1976). Temozolomide and dacarbazine were separately added to the cell culture media at increasing doses and the relative cell density, as a percent of control cells not exposed to temozolomide or dacarbazine, was calculated.
To test the cytotoxic effect of 1-[(E)-2-(4-nitrophenyl)diazen-1-yl]-4-phenylpiperazine, methyl 4-[(E)-2-(4-phenylpiperazin-1-yl)diazen-1-yl]benzoate, 1-{4[(E)-2-[4-(3,4-dichlorophenyl)piperazin-1-yl]phenyl}ethan-1-one, 1-{4-[(E)-2-[4-pyridin-2-yl)piperazin-1-yl]diazen-1-yl]phenyl}ethan-1-one, serial dilutions of the compounds were made and added to the cell culture media containing the A549 lung cancer cells. The relative cell density, as a percent of control cells not exposed to temozolomide, dacarbazine or the experimental compounds, was calculated.

HT29 colon cancer cells = experiment: Cytotoxicity of HT29 colon cancer cells (relative cell density); conditions: Homo sapiens, HT-29, relative cell density as percent of control, FIG. 3, read-out: LD50 (the source's name)
[1] = system: U87MG glioblastoma cancer cells; experiment: Cytotoxicity of glioblastoma cancer cells (relative cell density); conditions: Homo sapiens, U-87 MG, relative cell density as percent of control, FIG. 1, read-out: LD50 (the source's name)
Protocol: U87MG glioblastoma cancer cells were cultured according to established protocols (Martinkova et al., Cytotoxicity of and DNA adduct formation by ellipicine in human U87MG glioblastoma cancer cells. Neuro Endocrinol Lett 30 (Suppl 1):60-6, 2009). Temozolomide was added to the cell culture media at increasing doses and the relative cell density, as a percent of control cells not exposed to temozolomide, was calculated. Temozolomide is one of the primary treatments for glioblastoma type cancers and dacarbazine is an antineoplastic chemotherapy used in the treatment of various cells.
To test the cytotoxic effect of 1-[(E)-2-(4-nitrophenyl)diazen-1-yl]-4-phenylpiperazine, 4-[(E)-2-(4-phenylpiperazin-1-yl)diazen-1-yl]benzonitrile, methyl 4-[(E)-2-(4-phenylpiperazin-1-yl)diazen-1-yl]benzoate, methyl 4-[(E)-2-[4-(4-chlorophenyl)piperazin-1-yl)diazen-1-yl]benzoate, 1-[(E)-2-(4-bromophenyl)diazen-1-yl]-4-[(3-methylphenyl)methyl]piperazine, 4-[(E)-2-{4-[(3-methylphenyl)methyl]piperazin-1-yl}diazen-1-yl]benzonitrile serial dilutions of the compounds were made and added to the cell culture media containing the U87MG glioblastoma cancer cells. The relative cell density, as a percent of control cells not exposed to temozolomide, dacarbazine or the experimental compounds, was calculated.

Compound	LD50 (A549 lung cancer cells) [µM]	IC50 (HT29 colon cancer cells) [µM]	IC50 [1] [µM]
O=[N+]([O-])c1ccc(/N=N/N2CCN(c3ccccc3)CC2)cc1 [Compound 1, 1-[(E)-2-(4-nitrophenyl)diazen-1-yl]-4-phenylpiperazine]	5.27	2.5	4.36
N#Cc1ccc(/N=N/N2CCN(c3ccccc3)CC2)cc1 [Compound 2, 4-[(E)-2-(4-phenylpiperazin-1-yl)diazen-1-yl]benzonitrile]	–	2.6	12.4
COC(=O)c1ccc(/N=N/N2CCN(c3ccccc3)CC2)cc1 [Compound 3, Methyl 4-[(E)-2-(4-phenylpiperazin-1-yl)diazen-1-yl]benzoate]	25.5	3.9	16.2
Cc1ccc(/N=N/N2CCN(c3ccccc3)CC2)cc1 [Compound 7, 1-[(E)-2-(4-methylphenyl)diazen-1-yl]-4-phenylpiperazine]	–	9.6	–
COC(=O)c1ccc(/N=N/N2CCN(c3ccc(Cl)cc3)CC2)cc1 [Compound 12, methyl 4-[(E)-2-[4-(4-chlorophenyl)piperazin-1-yl)diazen-1-yl]benzoate]	–	–	22.2
CC(=O)c1ccc(/N=N/N2CCN(c3ccc(Cl)c(Cl)c3)CC2)cc1 [Compound 22]	3.4	3.4	–
COC(=O)c1ccc(/N=N/N2CCN(c3ccccn3)CC2)cc1 [Compound 42, methyl 4-[(E)-2-[4-(pyridin-2-yl)piperazin-1-yl]diazen-1-yl]benzoate]	–	14.6	–
CC(=O)c1ccc(/N=N/N2CCN(c3ccccn3)CC2)cc1 [Compound 45]	15.6	11.2	–
N#Cc1ccccc1N1CCN(/N=N/c2ccc(Br)cc2)CC1 [Compound 49, 2-{4-[(E)-2-(4-bromophenyl)diazen-1-yl]piperazin-1-yl}benzonitrile]	–	5.2	–
Cc1cccc(CN2CCN(/N=N/c3ccc(C#N)cc3)CC2)c1 [Compound 68, 4-[(E)-2-{4-[(3-methylphenyl)methyl]piperazin-1-yl}diazen-1-yl]benzonitrile]	–	13.5	14
Cc1cccc(CN2CCN(/N=N/c3ccc(Br)cc3)CC2)c1 [Compound 70, 1-[(E)-2-(4-bromophenyl)diazen-1-yl]-4-[(3-methylphenyl)methyl]piperazine]	–	17.6	12.2
Cn1nnc2c(C(N)=O)ncn2c1=O [Temozolomide, reference compound]	60.4	–	25.5
CN(C)/N=N/c1[nH]cnc1C(N)=O [dacarbazine, reference compound]	25.7	25.2	25
